pIC50: −log10 of the molar value.
Experiments:
[1] = target: T1, Mitogen-activated protein kinase 14 (Homo sapiens, UniProt Q16539); experiment: Binding affinity to unphosphorylated p38alpha by fluoroprobe binding assay
[2] = target: T1, Mitogen-activated protein kinase 14; experiment: Binding affinity to phosphorylated p38alpha by fluoroprobe binding assay
[3] = target: T1, Mitogen-activated protein kinase 14; experiment: Binding affinity to phosphorylated p38alpha assessed as change in melting temperature
[4] = target: T1, Mitogen-activated protein kinase 14; experiment: Binding affinity to unphosphorylated p38alpha assessed as change in melting temperature
[5] = target: T2, Ephrin type-B receptor 2 (Homo sapiens, UniProt P29323); experiment: Inhibition of EPHB2
T2 sequence (P29323 whole entry): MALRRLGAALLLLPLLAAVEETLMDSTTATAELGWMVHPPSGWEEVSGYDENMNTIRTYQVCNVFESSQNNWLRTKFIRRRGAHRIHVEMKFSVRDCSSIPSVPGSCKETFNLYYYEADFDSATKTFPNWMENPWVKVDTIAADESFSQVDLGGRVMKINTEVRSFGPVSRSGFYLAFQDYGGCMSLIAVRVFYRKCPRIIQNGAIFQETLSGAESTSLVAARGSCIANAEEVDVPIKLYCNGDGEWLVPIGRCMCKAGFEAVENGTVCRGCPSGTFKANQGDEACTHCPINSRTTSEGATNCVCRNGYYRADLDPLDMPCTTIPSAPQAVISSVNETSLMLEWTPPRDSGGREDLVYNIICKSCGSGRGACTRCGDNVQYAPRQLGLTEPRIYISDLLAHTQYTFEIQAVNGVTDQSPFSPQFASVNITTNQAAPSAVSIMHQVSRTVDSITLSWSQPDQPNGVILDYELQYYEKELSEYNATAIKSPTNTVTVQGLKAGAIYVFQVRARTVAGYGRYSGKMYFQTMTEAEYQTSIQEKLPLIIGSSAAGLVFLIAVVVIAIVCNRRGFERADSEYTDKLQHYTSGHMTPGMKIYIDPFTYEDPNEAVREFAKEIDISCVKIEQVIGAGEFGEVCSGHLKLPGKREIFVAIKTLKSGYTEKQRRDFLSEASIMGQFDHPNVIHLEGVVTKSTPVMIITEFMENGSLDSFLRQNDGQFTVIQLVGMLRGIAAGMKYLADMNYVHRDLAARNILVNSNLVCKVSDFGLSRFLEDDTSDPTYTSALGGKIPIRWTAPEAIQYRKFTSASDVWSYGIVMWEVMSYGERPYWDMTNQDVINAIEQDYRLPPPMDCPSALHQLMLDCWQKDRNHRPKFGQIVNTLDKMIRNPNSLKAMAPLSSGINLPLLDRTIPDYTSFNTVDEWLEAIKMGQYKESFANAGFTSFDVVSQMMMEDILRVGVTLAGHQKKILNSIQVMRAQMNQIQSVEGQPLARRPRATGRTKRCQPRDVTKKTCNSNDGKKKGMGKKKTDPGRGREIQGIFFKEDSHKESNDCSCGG

[6] = target: Serine/threonine-protein kinase B-raf (Homo sapiens, UniProt P15056); experiment: Inhibition of BRAF
Serine/threonine-protein kinase B-raf, sequence (P15056 whole entry): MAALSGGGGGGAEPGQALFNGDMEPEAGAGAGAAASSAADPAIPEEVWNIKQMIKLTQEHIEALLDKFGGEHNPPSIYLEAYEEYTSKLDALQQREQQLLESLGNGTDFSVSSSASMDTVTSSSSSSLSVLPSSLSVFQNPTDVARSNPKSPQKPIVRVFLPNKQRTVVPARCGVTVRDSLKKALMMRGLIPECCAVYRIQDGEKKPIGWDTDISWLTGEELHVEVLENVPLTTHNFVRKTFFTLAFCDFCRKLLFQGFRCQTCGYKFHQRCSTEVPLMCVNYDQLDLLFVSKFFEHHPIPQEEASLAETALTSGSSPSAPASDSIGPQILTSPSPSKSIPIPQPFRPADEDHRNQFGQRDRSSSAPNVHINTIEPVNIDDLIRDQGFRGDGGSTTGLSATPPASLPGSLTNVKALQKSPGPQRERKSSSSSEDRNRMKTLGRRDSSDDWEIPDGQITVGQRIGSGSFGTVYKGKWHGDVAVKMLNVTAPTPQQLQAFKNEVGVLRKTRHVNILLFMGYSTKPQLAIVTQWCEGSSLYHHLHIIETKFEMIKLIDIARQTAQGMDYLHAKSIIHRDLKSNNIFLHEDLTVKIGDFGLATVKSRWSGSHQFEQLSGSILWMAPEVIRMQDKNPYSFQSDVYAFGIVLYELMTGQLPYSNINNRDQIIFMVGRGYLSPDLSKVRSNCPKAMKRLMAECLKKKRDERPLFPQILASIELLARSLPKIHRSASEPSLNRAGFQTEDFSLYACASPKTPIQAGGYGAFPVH

[7] = target: T1, Mitogen-activated protein kinase 14; experiment: Inhibition of p38alpha by fluoroprobe binding assay
[8] = target: T1, Mitogen-activated protein kinase 14; experiment: Inhibition of p38alpha autophosphorylation

T1 sequence (Q16539 whole entry): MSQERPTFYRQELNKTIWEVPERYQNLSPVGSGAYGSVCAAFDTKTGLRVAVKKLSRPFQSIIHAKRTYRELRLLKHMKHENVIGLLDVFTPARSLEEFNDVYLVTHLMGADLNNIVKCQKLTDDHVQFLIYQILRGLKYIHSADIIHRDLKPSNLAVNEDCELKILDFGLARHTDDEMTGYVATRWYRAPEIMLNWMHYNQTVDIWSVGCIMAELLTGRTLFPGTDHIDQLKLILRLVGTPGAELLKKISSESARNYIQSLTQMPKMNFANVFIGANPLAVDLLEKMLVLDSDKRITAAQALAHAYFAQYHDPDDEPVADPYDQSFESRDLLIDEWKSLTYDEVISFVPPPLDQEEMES

| Structure (SMILES) | pIC50 [1] | pIC50 [2] | ΔTm [3] [°C] | ΔTm [4] [°C] | pIC50 [5] | pIC50 [6] | pIC50 [7] | pIC50 [8] |
| --- | --- | --- | --- | --- | --- | --- | --- | --- |
| NC(=O)Cc1cccc(-n2nc(-c3ccccc3)cc2NC(=O)Nc2cccc(Cl)c2Cl)c1 | 6.92 | 7.10 | 5.4 | 8 | – | – | – | – |
| CC(C)(C)c1cc(NC(=O)Nc2cccc(Cl)c2Cl)n(-c2cccc(CC(N)=O)c2)n1 | – | – | 9.1 | 12.8 | 7.09 | 7.77 | – | – |
| NC(=O)Cc1cccc(-n2nc(-c3ccsc3)cc2NC(=O)Nc2cccc(Cl)c2Cl)c1 | 7.82 | 7.55 | 9.3 | 11.6 | – | – | – | – |
| CC(C)(C)c1cc(NC(=O)Nc2cccc3ccccc23)n(-c2cccc(C(=O)N3C(=O)OC[C@@H]3c3ccccc3)c2)n1 | – | – | – | – | – | – | < 5.00 | – |
| NC(=O)Cc1cccc(-n2nc(C3CCCC3)cc2NC(=O)Nc2cccc(Cl)c2Cl)c1 | – | 8.00 | – | 12.2 | – | – | – | – |
| NC(=O)Cc1cccc(-n2nc(-c3cccs3)cc2NC(=O)Nc2cccc(Cl)c2Cl)c1 | – | 7.18 | 8.5 | 11.2 | < 4.30 | – | – | < 5.30 |
| CC(C)(C)c1cc(NC(=O)Nc2cccc(Cl)c2Cl)n(-c2ccc(CC(=O)N3CCS(=O)(=O)CC3)cc2)n1 | – | – | – | – | – | – | 8.15 | – |
| CC(C)(C)c1cc(NC(=O)Nc2cccc3ccccc23)n(-c2cccc(CC(N)=O)c2)n1 | – | – | 8.6 | 9.1 | – | – | – | – |
| NC(=O)Cc1cccc(-n2nc(-c3ccccc3F)cc2NC(=O)Nc2cccc(Cl)c2Cl)c1 | 7.60 | 7.40 | 7.1 | 8.8 | – | – | – | – |

— ChEMBL document CHEMBL1268872 (Bioorg Med Chem Lett, 2010)
